The results in this text go back to patent US7605155B2, “Substituted pyrazolo[1,5-a]pyrimidines as protein kinase inhibitors” (priority 2002, dated 2009).

pIC50: −log10 of the molar value.

This test has as its target CDK2 (either cyclin A or E-dependent) (Homo sapiens, UniProt P24941). As to the kind of experiment: biochemical. An excerpt:
BACULOVIRUS CONSTRUCTIONS: Cyclins A and E were cloned into pFASTBAC (Invitrogen) by PCR, with the addition of a GluTAG sequence (EYMPME) at the amino-terminal end to allow purification on anti-GluTAG affinity columns. […] CDK2 was also cloned into pFASTBAC by PCR, with the addition of a haemaglutinin epitope tag at the carboxy-terminal end ([…]).
ENZYME PRODUCTION: Recombinant baculoviruses expressing cyclins A, E and CDK2 were infected into SF9 cells at a multiplicity of infection (MOI) of 5, for 48 hrs. Cells were harvested by centrifugation at 1000 RPM for 10 minutes. Cyclin-containing (E or A) pellets were combined with CDK2 containing cell pellets and lysed on ice for 30 minutes in five times the pellet volume of lysis buffer containing 50 mM Tris pH 8.0, 0.5% NP40, 1 mM DTT and protease/phosphatase inhibitors (Roche Diagnostics GmbH, Mannheim, Germany). Mixtures were stirred for 30-60 minutes to promote cyclin-CDK2 complex formation. Mixed lysates were then spun down at 15000 RPM for 10 minutes and the supernatant retained. 5 ml of anti-GluTAG beads (for one liter of SF9 cells) were then used to capture cyclin-CDK2 complexes. Bound beads were washed three times in lysis buffer. Proteins were competitively eluted with lysis buffer containing 100-200 ug/mL of the GluTAG peptide. Eluate was dialyzed overnight in 2 liters of kinase buffer containing 50 mM Tris pH 8.0, 1 mM DTT, 10 mM MgCl2, 100 uM sodium orthovanadate and 20% glycerol. Enzyme was stored in aliquots at −70° C.
IN VITRO KINASE ASSAY: CDK2 kinase assays (either cyclin A or E-dependent) were performed in low protein binding 96-well plates (Corning Inc, Corning, N.Y.). Enzyme was diluted to a final concentration of 50 μg/ml in kinase buffer containing 50 mM Tris pH 8.0, 10 mM MgCl2, 1 mM DTT, and 0.1 mM sodium orthovanadate. The substrate used in these reactions was a biotinylated peptide derived from Histone H1 (from Amersham, UK). The substrate was thawed on ice and diluted to 2 μM in kinase buffer. Compounds were diluted in 10% DMSO to desirable concentrations. For each kinase reaction, 20 μl of the 50 μg/ml enzyme solution (1 μg of enzyme) and 20 μl of the […] substrate solution were mixed, then combined with 10 μl of diluted compound in each well for testing. […] The reaction was allowed to run for 1 hour at room temperature. The reaction was stopped by adding 200 μl of stop buffer containing 0.1% Triton X-100, 1 mM ATP, 5 mM EDTA, and 5 mg/ml streptavidine coated SPA beads (from Amersham, UK) for 15 minutes. The SPA beads were then captured onto a 96-well GF/B filter plate (Packard/Perkin Elmer Life Sciences) using a Filtermate universal harvester (Packard/Perkin Elmer Life Sciences.). Non-specific signals were eliminated by washing the beads twice with 2M NaCl then twice with 2 M NaCl with 1% phosphoric acid. The radioactive signal was then measured using a TopCount 96 well liquid scintillation counter (from Packard/Perkin Elmer Life Sciences).
IC50 DETERMINATION: Dose-response curves were plotted from inhibition data generated, each in duplicate, from 8 point serial dilutions of inhibitory compounds. Concentration of compound was plotted against % kinase activity, calculated by CPM of treated samples divided by CPM of untreated samples. To generate IC50 values, the dose-response curves were then fitted to a standard sigmoidal curve and IC50 values were derived by nonlinear regression analysis. These kinase activities were generated by using cyclin A or cyclin E using the above-described assay.
`Nc1cc(C2CCCNC2)nc2c(-c3ccc(CO)cc3)cnn12` (stereo not shown) gave a pIC50 of 5.85.

Compound `Nc1cc(C2CCCNC2)nc2c(-c3cncs3)cnn12` (stereo not shown) showed a pIC50 of 6.68.

`CC(C)Cc1ncc(-c2cnn3c(N)cc(C4CCCNC4)nc23)s1` (stereo not shown) showed a pIC50 of 5.89. For `Nc1cc(C2CCCNC2)nc2c(-c3ncon3)cnn12` (stereo not shown) the value was 5.60; for `N#CCc1ccc(-c2cnn3c(N)cc(C4CCCNC4)nc23)cc1` (stereo not shown), 4.92.

With `Nc1cc(C2CCCNC2)nc2c(-c3cscn3)cnn12` (stereo not shown), the pIC50 was 5.00. For `Nc1c(Br)c(C2CCCNC2)nc2c(-c3ccc4c(c3)OCO4)cnn12` (stereo not shown) the value was 6.24; for `N#Cc1ccc(-c2cnn3c(N)c(Br)c(C4CCCNC4)nc23)cc1` (stereo not shown), 6.62; for `Nc1c(Br)c(C2CCCNC2)nc2c(-c3cncs3)cnn12` (stereo not shown), 7.02.

Compound `Nc1c(Br)c(C2CCCNC2)nc2c(-c3cscn3)cnn12` (stereo not shown) had a pIC50 of 5.24.

In the case of `Cn1cc(-c2cnn3c(N)c(Br)c(N4CC[C@H](N)C4)nc23)cn1`, the pIC50 was 5.92.

As to `Nc1c(Br)c(C2CCCNC2)nc2c(-c3cnccn3)cnn12` (stereo not shown), the pIC50 is 5.33. The same measure for `Cn1cc(-c2cnn3c(NC4CCCC4)cc(C4CCCNC4)nc23)cn1` (stereo not shown): 4.60. `Cn1cc(-c2cnn3c(NCc4ccccc4)cc(C4CCCNC4)nc23)cn1` (stereo not shown) showed a pIC50 of 4.51.

As for `CCNc1c(Br)c(C2CCCNC2)nc2c(-c3cnn(C)c3)cnn12` (stereo not shown), the pIC50 was 5.24. In turn, `Nc1cc(C2CCCNC2)nc2c(-c3cnoc3)cnn12` (stereo not shown) had a pIC50 of 6.10.

The compound `Nc1cc(C2CCCNC2)nc2c(-c3cnn(CCO)c3)cnn12` (stereo not shown) had a pIC50 of 5.37.

`CC(C)n1cc(-c2cnn3c(N)cc(C4CCCNC4)nc23)cn1` (stereo not shown): the pIC50 is 5.08.

As to `Cn1cc(-c2cnn3c(N)c(I)c(C4CCCNC4)nc23)cn1` (stereo not shown), the pIC50 is 7.70. For `N#Cc1ccc(-c2cnn3c(N)cc(C4CCCNC4)nc23)cn1` (stereo not shown) the value was 5.64; for `N#Cc1ccc(-c2cnn3c(N)c(Br)c(C4CCCNC4)nc23)cn1` (stereo not shown), 6.06; for `Nc1c(Br)c(C2CCCNC2)nc2c(-c3cnoc3)cnn12` (stereo not shown), 6.80. For `Nc1c(Br)c(C2CCCNC2)nc2c(-c3cnn(CCO)c3)cnn12` (stereo not shown) the value was 6.70; for `N#Cc1cncc(-c2cnn3c(N)c(Br)c(C4CCCNC4)nc23)c1` (stereo not shown), 5.24. `CCn1cc(-c2cnn3c(N)c(Br)c(C4CCCNC4)nc23)cn1` (stereo not shown): the pIC50 was 6.39. For `CN(C)C(=O)Cn1cc(-c2cnn3c(N)c(Br)c(C4CCCNC4)nc23)cn1` (stereo not shown) the value was 5.85; for `Cn1cc(-c2cnn3c(N)c(Br)c(C4CCCN(CCO)C4)nc23)cn1` (stereo not shown), 5.76; for `N#Cc1cc(-c2cnn3c(N)c(Br)c(C4CCCNC4)nc23)co1` (stereo not shown), 6.85.

In the case of `N#Cc1cc(-c2cnn3c(N)c(Cl)c(C4CCCNC4)nc23)co1` (stereo not shown), the pIC50 is 6.68. The same measure for `Nc1cc(C2CCCNC2)nc2c(-c3coc(C=NO)c3)cnn12` (stereo not shown): 7.40; for `Nc1cc(C2CCCNC2)nc2c(-c3cn[nH]c3)cnn12` (stereo not shown): 5.82; for `COC(=O)[C@@H]1CC[C@H](c2cc(N)n3ncc(-c4cnn(C)c4)c3n2)CN1`: 4.85. `Cn1cc(-c2cnn3c(N)c(Br)c(CC4CNCCO4)nc23)cn1` (stereo not shown) had a pIC50 of 5.21. The same measure for `Cn1cc(-c2cnn3c(N)c(Br)c(CC4CNCCN4)nc23)cn1` (stereo not shown): 5.24; for `Cn1cc(-c2cnn3c(N)cc(C4(F)CCCNC4)nc23)cn1` (stereo not shown): 5.22; for `Cn1cc(-c2cnn3c(N)c(Br)c(C4CCCCN4)nc23)cn1` (stereo not shown): 4.55. For `Cn1cc(-c2cnn3c(N)c(Br)c(C4CNCCNC4)nc23)cn1` the value was 6.14; for `Cn1cc(-c2cnn3c(N)cc([C@H]4CC[C@@H](CO)NC4)nc23)cn1`, 4.92; for `C/C(=N\O)[C@@H]1CC[C@H](c2nc3c(-c4cnn(C)c4)cnn3c(N)c2Br)CN1`, 6.28.

`Cn1cc(-c2cnn3c(N)c(Br)c([C@H]4CCC[C@@H](N)C4)nc23)cn1` gave a pIC50 of 6.36. For `Cn1cc(-c2cnn3c(N)cc([C@@H]4CC[C@@H](N)C4)nc23)cn1`, the pIC50 was 5.25.

With `Cn1cc(-c2cnn3c(N)cc([C@@H]4CC[C@H](N)C4)nc23)cn1`, the pIC50 was 5.43. The compound `Cn1cc(-c2cnn3c(N)c(Br)c([C@@H]4CC[C@@H](N)C4)nc23)cn1` gave a pIC50 of 6.92. `Cn1cc(-c2cnn3c(N)c(Br)c([C@@H]4CC[C@H](N)C4)nc23)cn1`: the pIC50 is 6.62. Compound `CC(N)CCc1nc2c(-c3cnn(C)c3)cnn2c(N)c1Br` (stereo not shown) had a pIC50 of 5.92.

In turn, `CC(C)N1CCNCC(c2nc3c(-c4cnn(C)c4)cnn3c(N)c2Br)C1` (stereo not shown) showed a pIC50 of 5.59. For `CC(=O)N1CCNCC(c2nc3c(-c4cnn(C)c4)cnn3c(N)c2Br)C1` (stereo not shown) the value was 5.59; for `Cn1cc(-c2cnn3c(N)c(Br)c(C4CNCCN(S(C)(=O)=O)C4)nc23)cn1` (stereo not shown), 5.51.

Regarding `Cn1cc(-c2cnn3c(N)c(Br)c(CCNCc4ccccc4)nc23)cn1`, the pIC50 was 5.43.
